Test results taken from patent publication US20250281452A1, “CHIRAL ARYL PROPIONIC ACID DERIVATIVE AND PHARMACEUTICAL COMPOSITION THEREOF, AND USE” (SHIJIAZHUANG DISCOVERY MEDICINE TECHNOLOGY CO., LTD, priority 2022, published 2025).
Blank lines part the entries; values can stand above or below the compound they belong to.

Key:
IL-6 in HFLS-RA cells = assay: Effect on HFLS-RA cytokine secretion, IL-6 (ELISA); format: cell-based, human; set-up: unit not given here; settings: supernatant content, TNF-α 10 ng/mL, test sample 100 µg/mL, 48 h culture, x ± s
Procedure: (§1) The experiment was divided into a blank control group (containing no test samples or TNF-α), a TNF-α group (the final concentration of TNF-α for cell incubation was 10 ng/mL), test sample groups (8 groups in total, including DSC4801 group, DSC4807 group, DSC4810 group, DSC4813 group, DSC4821 group and DSC4826 group as well as control 1 group, control 3 group, the final concentrations of test samples for cell incubation and of TNT-α were 100 µg/mL and 10 ng/mL, respectively).
(§2) HFLS-RA cells in a logarithmic growth phase were inoculated in a 6-well culture plate at a density of 5×10^4 cell/ml with an inoculation volume of each well being 200 μL, and cultured for 2 h in a 37° C. and 5% CO2 incubator after inoculation, and then a proper amount of sample solutions was added according to the grouping and the final concentrations of samples, with 3 duplicated wells set in each group. Cell supernatant was collected after further culture of 48 h, and the contents of IL-6 and IL-8 in the supernatant were detected using an ELISA kit.

IL-8 in HFLS-RA cells = assay: Effect on HFLS-RA cytokine secretion, IL-8 (ELISA); format: cell-based, human; set-up: unit not given here; settings: supernatant content, TNF-α 10 ng/mL, test sample 100 µg/mL, 48 h culture, x ± s
Procedure: as §1, §2

HFLS-RA cells = assay: Effect on HFLS-RA cell proliferation activity (CCK-8); format: cell-based, human; settings: TNF-α 10 ng/mL induced HFLS-RA cells, 72 h after treatment, x ± s
Procedure: Co-incubation: HFLS-RA cells in a logarithmic growth phase were inoculated in a 96-well culture plate at a density of 3×10^4 cells/ml with an inoculation volume of each well being 100 μL, and cultured for 24 h in a 37° C. and 5% CO2 incubator (the cell adhesion convergence degree reached about 25%) after inoculation, and then a proper amount of sample solutions was added according to the grouping and final concentrations of samples, with 3 duplicated wells set in each group. Before sampling (0 h), group 1 in blank control group was subjected to CCK-8 detection, and the rest groups were cultured for 72 h in an incubator and then subjected to CCK-8 detection.
Detection and calculation: the culture solution was discarded, and 100 μL of culture medium containing a 10% CCK-8 solution was added into each well and incubated for 2 h at 37° C. The light absorption value (OD value) was measured at 450 nm using a microplate reader, and the cell proliferation rate was calculated according to the following formula.
cell proliferation rate=[OD(72 h)−OD(0 h)]/OD(0 h)×100%, Calculation formula
where, OD(0 h) represents the OD value at 0 h, and […].

[1] = cited from earlier work
[2] = single local administration of 1% loxoprofen (100 mg), in 12 hours; cited from earlier work
[3] = after oral administration; cited from earlier work
[4] = Joint tissue distribution after oral gavage; format: in vivo; settings: SD rats, ankle joint tissue at 0.5, 1, 2 h, trans-OH metabolite detected by LC-MS/MS, compared with control 1 and control 2, P<0.001 (FIG. 1)
Procedure: 36 healthy male SD rats with a body weight of 200±20 g per rat were fed under conditions of a room temperature of 20-26° C., a humidity of 40%-70% and a light and dark cycle of 12 h/12 h, the rats were fed at liberty in the process of feeding. After adaptive feeding for 3 days, the SD rats were randomly divided into 4 groups (A/B/C/D groups), with 9 rats per group, each group was further randomly divided into 3 time groups, with 3 rats per time group. A suspension (the test samples were suspended with 1% MS, respectively) of the test sample was given to each group via oral gavage, wherein group A was administrated with 3 mg/kg of DSC4813, group B was administrated with 2.94 mg/kg of DSC4821, group C was administrated with 2.47 mg/kg of control 1, and group D was administrated with 2 mg/kg of control 2 (loxoprofen). 3 rats were anesthetized and euthanized in each group at 0.5 h, 1 h and 2 h, respectively after administration. The left and right ankle joints of hind legs were dissected, and the skin at the joints was peeled off. […] To-be-detected substances were detected by LC-MS/MS (compound trans-OH metabolite was detected for groups A/B/C, loxoprofen and all isomers whose carbonyl was reduced to OH for group D, and the results of group D were a sum of concentrations of loxoprofen and all isomers whose carbonyl was reduced to OH).

SMILES: CCCC(=O)O[C@H]1CCC[C@@H]1Cc1ccc([C@H](C)C(=O)O)cc1 [Control 1, reference compound]
IL-6 (IL-6 in HFLS-RA cells): 67.45 ± 2.68
IL-8 (IL-8 in HFLS-RA cells): 131.21 ± 6.88
Cell proliferation rate (HFLS-RA cells): 39.33 ± 3.46%

SMILES: CC(C(=O)O)c1ccc(CC2CCCC2=O)cc1 (stereo not drawn) [Control 2, loxoprofen, reference compound]
Cell proliferation rate (HFLS-RA cells): 48.25 ± 3.21%

SMILES: CC(C(=O)O)c1ccc(CC2CCCC2=O)cc1 (stereo not drawn) [Control 2, loxoprofen]
Plasma protein binding rate [1]: 97%
Dose transferred to a body [2]: 10%
Time until plasma concentration reaches peak [3]: 30 to 50 min

SMILES: CCN(CC)CCOC(=O)[C@@H](C)c1ccc(C[C@H]2CCC[C@@H]2O)cc1 [DSC4801]
IL-6 (IL-6 in HFLS-RA cells): 46.26 ± 0.35
IL-8 (IL-8 in HFLS-RA cells): 119.08 ± 4.55
Cell proliferation rate (HFLS-RA cells): 31.18 ± 1.82%

SMILES: CCN(CC)CCOCCOC(=O)[C@@H](C)c1ccc(C[C@H]2CCC[C@@H]2O)cc1 [DSC4802]
Cell proliferation rate (HFLS-RA cells): 27.26 ± 2.41%

SMILES: CCN(CC)CCN(CC)CCOC(=O)[C@@H](C)c1ccc(C[C@H]2CCC[C@@H]2O)cc1 [DSC4803]
Cell proliferation rate (HFLS-RA cells): 30.17 ± 1.85%

SMILES: CCN(CC)CCOC(=O)[C@@H](C)c1ccc(C[C@H]2CCC[C@@H]2OC(C)=O)cc1 [DSC4804]
Cell proliferation rate (HFLS-RA cells): 29.36 ± 2.33%

SMILES: CCN(CC)CCOCCOC(=O)[C@@H](C)c1ccc(C[C@H]2CCC[C@@H]2OC(C)=O)cc1 [DSC4805]
Cell proliferation rate (HFLS-RA cells): 29.28 ± 1.92%

SMILES: CCN(CC)CCOC(=O)[C@@H](C)c1ccc(C[C@H]2CCC[C@@H]2OC(=O)C(CS)N(C)C)cc1 (stereo partly drawn) [DSC4806]
Cell proliferation rate (HFLS-RA cells): 24.19 ± 2.24%

SMILES: CCN(CC)CCOCC(=O)O[C@H]1CCC[C@@H]1Cc1ccc([C@H](C)C(=O)O)cc1 [DSC4807]
IL-6 (IL-6 in HFLS-RA cells): 48.01 ± 0.77
IL-8 (IL-8 in HFLS-RA cells): 121.66 ± 4.78
Cell proliferation rate (HFLS-RA cells): 22.23 ± 3.04%

SMILES: CCN(CC)CCNCCOCC(=O)O[C@H]1CCC[C@@H]1Cc1ccc([C@H](C)C(=O)O)cc1 [DSC4808]
Cell proliferation rate (HFLS-RA cells): 23.11 ± 2.25%

SMILES: C[C@H](C(=O)O)c1ccc(C[C@H]2CCC[C@@H]2OC(=O)C(N)CS)cc1 (stereo partly drawn) [DSC4809]
Cell proliferation rate (HFLS-RA cells): 22.47 ± 1.99%

SMILES: C[C@H](C(=O)O)c1ccc(C[C@H]2CCC[C@@H]2OC(=O)C(CS)N(C)C)cc1 (stereo partly drawn) [DSC4810]
IL-6 (IL-6 in HFLS-RA cells): 47.88 ± 0.72
IL-8 (IL-8 in HFLS-RA cells): 118.57 ± 3.92
Cell proliferation rate (HFLS-RA cells): 24.95 ± 2.65%

SMILES: CCOC(=O)[C@@H](C)c1ccc(C[C@H]2CCC[C@@H]2OC(=O)COCCN(CC)CC)cc1 [DSC4811]
Cell proliferation rate (HFLS-RA cells): 22.37 ± 1.78%

SMILES: CCOC(=O)[C@@H](C)c1ccc(C[C@H]2CCC[C@@H]2OC(=O)C(CS)N(C)C)cc1 (stereo partly drawn) [DSC4812]
Cell proliferation rate (HFLS-RA cells): 23.81 ± 2.21%

Distribution at joints [4]: significantly improved
SMILES: C[C@H](C(=O)OCCN1C(=O)CCC1=O)c1ccc(C[C@H]2CCC[C@@H]2O)cc1 [DSC4813]
IL-6 (IL-6 in HFLS-RA cells): 46.82 ± 0.63
IL-8 (IL-8 in HFLS-RA cells): 119.48 ± 4.07
Cell proliferation rate (HFLS-RA cells): 22.34 ± 2.72%

SMILES: CC(=O)O[C@H]1CCC[C@@H]1Cc1ccc([C@H](C)C(=O)OCCN2C(=O)CCC2=O)cc1 [DSC4814]
Cell proliferation rate (HFLS-RA cells): 24.36 ± 1.99%

SMILES: CC[N+](CC)(CC)CCOC(=O)[C@@H](C)c1ccc(C[C@H]2CCC[C@@H]2O)cc1 [DSC4815]
Cell proliferation rate (HFLS-RA cells): 28.31 ± 2.26%

SMILES: CC[N+](CC)(CC)CCOC(=O)[C@@H](C)c1ccc(C[C@H]2CCC[C@@H]2O)cc1 [DSC4816]
Cell proliferation rate (HFLS-RA cells): 29.71 ± 2.83%

SMILES: CCOC(=O)[C@@H](C)c1ccc(C[C@H]2CCC[C@@H]2OC(=O)COCC[N+](CC)(CC)CC)cc1 [DSC4817]
Cell proliferation rate (HFLS-RA cells): 23.32 ± 2.46%

SMILES: CCOC(=O)[C@@H](C)c1ccc(C[C@H]2CCC[C@@H]2OC(=O)COCC[N+](CC)(CC)CC)cc1 [DSC4818]
Cell proliferation rate (HFLS-RA cells): 22.54 ± 2.14%

SMILES: CCOC(=O)[C@@H](C)c1ccc(C[C@H]2CCC[C@@H]2OC(=O)CN(CC)CC)cc1 [DSC4819]
Cell proliferation rate (HFLS-RA cells): 20.36 ± 2.10%

SMILES: CCOC(=O)[C@@H](C)c1ccc(C[C@H]2CCC[C@@H]2OC(=O)CCN(CC)CC)cc1 [DSC4820]
Cell proliferation rate (HFLS-RA cells): 21.11 ± 3.56%

SMILES: CCN(CC)CC(=O)O[C@H]1CCC[C@@H]1Cc1ccc([C@H](C)C(=O)O)cc1 [DSC4821]
IL-6 (IL-6 in HFLS-RA cells): 46.58 ± 0.61
Distribution at joints [4]: significantly improved
IL-8 (IL-8 in HFLS-RA cells): 117.72 ± 3.43
Cell proliferation rate (HFLS-RA cells): 20.96 ± 1.85%

SMILES: CCOC(=O)[C@@H](C)c1ccc(C[C@H]2CCC[C@@H]2OC(=O)OCCN(CC)CC)cc1 [DSC4825]
Cell proliferation rate (HFLS-RA cells): 22.53 ± 2.66%

SMILES: CCN(CC)CCOC(=O)O[C@H]1CCC[C@@H]1Cc1ccc([C@H](C)C(=O)O)cc1 [DSC4826]
IL-6 (IL-6 in HFLS-RA cells): 47.59 ± 0.45
IL-8 (IL-8 in HFLS-RA cells): 117.77 ± 4.23
Cell proliferation rate (HFLS-RA cells): 21.43 ± 1.94%

SMILES: CN(Cc1cnc2nc(N)nc(N)c2n1)c1ccc(C(=O)N[C@@H](CCC(=O)O)C(=O)O)cc1 [Negative control group, methotrexate, reference compound]
Cell proliferation rate (HFLS-RA cells; methotrexate 1 g/mL): 18.37 ± 1.32%
